Experiments:
Type in all cases: in vivo
[1] = test system: ragweed (common ragweed, Ambrosia artemisiifolia); assay: Test A postemergence, ragweed; conditions: Postemergence, 0 to 100 scale (0 no effect, 100 complete control); for Ragweed plant response rating: 500 g ai/ha, visual injury vs untreated controls after approx. 10 days
Method in brief: (§1)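 Whole-plant herbicidal screen in pots of loam blended with sand. Sprays used a surfactant-containing, non-phytotoxic solvent vehicle. Timing was preemergence soil-directed at planting or postemergence at the one- to two-leaf stage (2–10 cm).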

[2] = test system: ragweed (common ragweed, Ambrosia artemisiifolia); assay: Test A preemergence, ragweed; conditions: Preemergence; for Plant response rating, Ragweed: 0 to 100 scale (0 no effect, 100 complete control); for Ragweed plant response rating: visual injury on 0 to 100 scale (0 no effect, 100 complete control), approximately 10 days
Method in brief: as §1

[3] = test system: barnyardgrass (Echinochloa crus-galli); assay: Test A preemergence, barnyardgrass; conditions: Preemergence; for Plant response rating, Barnyardgrass: 0 to 100 scale (0 no effect, 100 complete control)
Method in brief: as §1

[4] = test system: galium (catchweed bedstraw, Galium aparine); assay: Test A postemergence, galium; conditions: Postemergence, 0 to 100 scale (0 no effect, 100 complete control); for Galium plant response rating: 500 g ai/ha, visual injury vs untreated controls after approx. 10 days
Method in brief: (§2)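 Pots: loam soil/sand blend. Pre: directed soil spray at planting. Post: plants 2–10 cm, 1–2 leaf stage. Formulation: non-phytotoxic solvent + surfactant.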

[5] = test system: Foxtail, Giant (giant foxtail, Setaria faberi); assay: Test A preemergence, Foxtail, Giant; conditions: Preemergence; for Plant response rating, Foxtail, Giant: 0 to 100 scale (0 no effect, 100 complete control); for Foxtail, Giant plant response rating: visual injury on 0 to 100 scale (0 no effect, 100 complete control), approximately 10 days
Method in brief: as §1

[6] = test system: barnyardgrass (Echinochloa crus-galli); assay: Test A postemergence, barnyardgrass; conditions: Postemergence, 0 to 100 scale (0 no effect, 100 complete control); for Barnyardgrass plant response rating: 500 g ai/ha, visual injury vs untreated controls after approx. 10 days
Method in brief: as §2

corn (Zea mays) = assay: Test A postemergence, corn; conditions: Postemergence, 0 to 100 scale (0 no effect, 100 complete control); for Corn plant response rating: 500 g ai/ha, visual injury vs untreated controls after approx. 10 days
Method in brief: as §1

[7] = test system: Ryegrass, Italian (Italian ryegrass, Lolium multiflorum); assay: Test A preemergence, Ryegrass, Italian; conditions: Preemergence; for Plant response rating, Ryegrass, Italian: 0 to 100 scale (0 no effect, 100 complete control); for Ryegrass, Italian plant response rating: visual injury on 0 to 100 scale (0 no effect, 100 complete control), approximately 10 days
Method in brief: as §1

[8] = test system: blackgrass (Alopecurus myosuroides); assay: Test A postemergence, blackgrass; conditions: Postemergence, 0 to 100 scale (0 no effect, 100 complete control); for Blackgrass plant response rating: 500 g ai/ha, visual injury vs untreated controls after approx. 10 days
Method in brief: as §1

kochia (Bassia scoparia) [9] = assay: Test A preemergence, kochia; conditions: Preemergence; for Plant response rating, Kochia: 0 to 100 scale (0 no effect, 100 complete control); for Kochia plant response rating: visual injury on 0 to 100 scale (0 no effect, 100 complete control), approximately 10 days
Method in brief: as §1

[10] = test system: wheat (Triticum aestivum); assay: Test A postemergence, wheat; conditions: Postemergence, 0 to 100 scale (0 no effect, 100 complete control); for Wheat plant response rating: 500 g ai/ha, visual injury vs untreated controls after approx. 10 days
Method in brief: as §2

kochia (Bassia scoparia) [11] = assay: Test A postemergence, kochia; conditions: Postemergence, 0 to 100 scale (0 no effect, 100 complete control); for Kochia plant response rating: 500 g ai/ha, visual injury vs untreated controls after approx. 10 days
Method in brief: as §1

[12] = test system: pigweed (Amaranthus retroflexus); assay: Test A postemergence, pigweed; conditions: Postemergence, 0 to 100 scale (0 no effect, 100 complete control); for Pigweed plant response rating: 500 g ai/ha, visual injury vs untreated controls after approx. 10 days
Method in brief: as §1

[13] = test system: Ryegrass, Italian (Italian ryegrass, Lolium multiflorum); assay: Test A postemergence, Ryegrass, Italian; conditions: Postemergence, 0 to 100 scale (0 no effect, 100 complete control); for Ryegrass, Italian plant response rating: 500 g ai/ha, visual injury vs untreated controls after approx. 10 days
Method in brief: as §1

[14] = test system: Foxtail, Giant (giant foxtail, Setaria faberi); assay: Test A postemergence, Foxtail, Giant; conditions: Postemergence, 0 to 100 scale (0 no effect, 100 complete control); for Foxtail, Giant plant response rating: 500 g ai/ha, visual injury vs untreated controls after approx. 10 days
Method in brief: as §1

[15] = test system: pigweed (Amaranthus retroflexus); assay: Test A preemergence, pigweed; conditions: for Plant response rating, Pigweed: 0 to 100 scale (0 no effect, 100 complete control); for Pigweed plant response rating: visual injury on 0 to 100 scale (0 no effect, 100 complete control), approximately 10 days
Method in brief: as §2

[16] = 125 g ai/ha, visual injury, approx. 10 days
[17] = 125 g ai/ha, visual injury approx. 10 days
[18] = 1000 g ai/ha, visual injury, approx. 10 days

Cc1cc(F)c(C(=O)N(C)C)cc1N(S(=O)(=O)C(F)(F)F)S(=O)(=O)C(F)(F)F [Compound 216]
100: Plant response rating, Kochia (kochia (Bassia scoparia) [9]; [16]) | Plant response rating, Pigweed ([15]; 500 g ai/ha)
40: Plant response rating, Barnyardgrass [3, 16] | Corn plant response rating (corn (Zea mays))
80: Plant response rating, Barnyardgrass ([3]; 500 g ai/ha) | Plant response rating, Pigweed [15, 16]
50: Plant response rating, Galium ([4]; 125 g ai/ha) | Barnyardgrass plant response rating [6]
60: Ragweed plant response rating [1]
10: Plant response rating, Ragweed ([1]; 125 g ai/ha)
90: Plant response rating, Foxtail, Giant ([5]; 500 g ai/ha) | Plant response rating, Ryegrass, Italian ([7]; 500 g ai/ha) | Plant response rating, Kochia (kochia (Bassia scoparia) [9]; 500 g ai/ha)
30: Plant response rating, Ragweed ([2]; 500 g ai/ha) | Plant response rating, Corn (corn (Zea mays); 125 g ai/ha) | Plant response rating, Ryegrass, Italian [7, 16] | Blackgrass plant response rating [8] | Kochia plant response rating (kochia (Bassia scoparia) [11]) | Plant response rating, Pigweed ([12]; 125 g ai/ha)
70: Galium plant response rating [4] | Wheat plant response rating [10] | Pigweed plant response rating [12] | Ryegrass, Italian plant response rating [13]
0: Plant response rating, Ragweed [2, 16] | Plant response rating, Barnyardgrass ([6]; 125 g ai/ha) | Plant response rating, Blackgrass ([8]; 125 g ai/ha) | Plant response rating, Wheat ([10]; 125 g ai/ha) | Plant response rating, Ryegrass, Italian ([13]; 125 g ai/ha) | Plant response rating, Foxtail, Giant ([14]; 125 g ai/ha)
20: Plant response rating, Foxtail, Giant [5, 16] | Plant response rating, Kochia (kochia (Bassia scoparia) [11]; 125 g ai/ha) | Foxtail, Giant plant response rating [14]

Cc1cc(F)c(C(=O)N2CCC(C#N)CC2)cc1NS(=O)(=O)C(F)(F)F [Compound 236]
70: Galium plant response rating [4] | Kochia plant response rating (kochia (Bassia scoparia) [9]; 500 g ai/ha)
0: Plant response rating, Barnyardgrass [3, 16] | Plant response rating, Barnyardgrass ([3]; 500 g ai/ha) | Plant response rating, Corn (corn (Zea mays); 125 g ai/ha) | Plant response rating, Blackgrass ([8]; 125 g ai/ha) | Plant response rating, Wheat ([10]; 125 g ai/ha) | Wheat plant response rating [10]
20: Corn plant response rating (corn (Zea mays)) | Plant response rating, Ryegrass, Italian [7, 16] | Blackgrass plant response rating [8] | Plant response rating, Kochia (kochia (Bassia scoparia) [9]; [16]) | Plant response rating, Foxtail, Giant ([14]; 125 g ai/ha)
60: Foxtail, Giant plant response rating ([5]; 500 g ai/ha) | Barnyardgrass plant response rating [6] | Ryegrass, Italian plant response rating ([7]; 500 g ai/ha) | Pigweed plant response rating [12] | Ryegrass, Italian plant response rating [13] | Plant response rating, Pigweed [15, 16]
40: Plant response rating, Ragweed ([1]; 125 g ai/ha) | Plant response rating, Galium ([4]; 125 g ai/ha) | Plant response rating, Pigweed ([12]; 125 g ai/ha)
50: Plant response rating, Ragweed [2, 16] | Plant response rating, Barnyardgrass ([6]; 125 g ai/ha) | Kochia plant response rating (kochia (Bassia scoparia) [11])
80: Ragweed plant response rating [1] | Ragweed plant response rating ([2]; 500 g ai/ha) | Foxtail, Giant plant response rating [14]
90: Pigweed plant response rating ([15]; 500 g ai/ha)
30: Plant response rating, Foxtail, Giant [5, 16] | Plant response rating, Kochia (kochia (Bassia scoparia) [11]; 125 g ai/ha) | Plant response rating, Ryegrass, Italian ([13]; 125 g ai/ha)

Cc1cc(C)c(-c2ccnn(CC(C)C)c2=O)cc1NS(=O)(=O)C(F)(F)F [Compound 77]
30: Plant response rating, Pigweed ([15]; 500 g ai/ha)
10: Ragweed plant response rating [1] | Kochia plant response rating (kochia (Bassia scoparia) [11])
100: Plant response rating, Foxtail, Giant ([5]; 500 g ai/ha)
60: Corn plant response rating (corn (Zea mays))
40: Galium plant response rating [4] | Foxtail, Giant plant response rating [14]
0: Plant response rating, Ragweed [1, 17] | Ragweed plant response rating ([2]; 125 g ai/ha) | Plant response rating, Galium [4, 17] | Plant response rating, Barnyardgrass [6, 17] | Plant response rating, Corn (corn (Zea mays); [17]) | Ryegrass, Italian plant response rating ([7]; 125 g ai/ha) | Plant response rating, Blackgrass [8, 17] | Blackgrass plant response rating [8] | Kochia plant response rating (kochia (Bassia scoparia) [9]; 125 g ai/ha) | Plant response rating, Kochia (kochia (Bassia scoparia) [9]; 500 g ai/ha) | Plant response rating, Wheat [10, 17] | Plant response rating, Kochia (kochia (Bassia scoparia) [11]; [17]) | Plant response rating, Pigweed [12, 17] | Pigweed plant response rating [12] | Plant response rating, Ryegrass, Italian [13, 17] | Ryegrass, Italian plant response rating [13] | Plant response rating, Foxtail, Giant [14, 17]
70: Wheat plant response rating [10]
90: Barnyardgrass plant response rating ([3]; 125 g ai/ha, visual injury on 0 to 100 scale (0 no effect, 100 complete control), approximately 10 days) | Plant response rating, Barnyardgrass ([3]; 500 g ai/ha) | Foxtail, Giant plant response rating ([5]; 125 g ai/ha) | Plant response rating, Ryegrass, Italian ([7]; 500 g ai/ha)
20: Plant response rating, Ragweed ([2]; 500 g ai/ha) | Barnyardgrass plant response rating [6] | Pigweed plant response rating ([15]; 125 g ai/ha)

Cc1ccc(C(=O)N2CCCCC2)cc1NS(=O)(=O)C(F)(F)F [Compound 259]
70: Plant response rating, Ragweed ([2]; 1000 g ai/ha)
50: Plant response rating, Blackgrass [8, 18]
60: Plant response rating, Galium [4, 18]
40: Plant response rating, Kochia (kochia (Bassia scoparia) [9]; 1000 g ai/ha) | Plant response rating, Kochia (kochia (Bassia scoparia) [11]; [18]) | Plant response rating, Pigweed [12, 18]
0: Plant response rating, Barnyardgrass [6, 18] | Plant response rating, Wheat [10, 18] | Plant response rating, Foxtail, Giant [14, 18]
10: Plant response rating, Ragweed [1, 18] | Plant response rating, Corn (corn (Zea mays); [18]) | Plant response rating, Ryegrass, Italian [13, 18]
80: Plant response rating, Ryegrass, Italian ([7]; 1000 g ai/ha) | Plant response rating, Pigweed ([15]; 1000 g ai/ha)
90: Plant response rating, Barnyardgrass ([3]; 1000 g ai/ha) | Plant response rating, Foxtail, Giant ([5]; 1000 g ai/ha)

From patent US20230278972A1, “SUBSTITUTED HALOALKYL SULFONANILIDE HERBICIDES” (FMC Corporation, priority 2020, published 2023)
